Data from EP4722209A1 (Beijing Shenogen Pharma Group, priority 2023, dated 2024).

Key:
[1] = biological target: T1, ERα (Homo sapiens, UniProt P03372); assay: ER degradation activity in MCF-7 cells (Western blot, grayscale intensity); type: cell-based; details: 6 hours treatment, 1 nM to 100 nM, concentration required to degrade 50% of the target protein
T1 construct: host or cells: MCF-7
T1 sequence (P03372 1-595): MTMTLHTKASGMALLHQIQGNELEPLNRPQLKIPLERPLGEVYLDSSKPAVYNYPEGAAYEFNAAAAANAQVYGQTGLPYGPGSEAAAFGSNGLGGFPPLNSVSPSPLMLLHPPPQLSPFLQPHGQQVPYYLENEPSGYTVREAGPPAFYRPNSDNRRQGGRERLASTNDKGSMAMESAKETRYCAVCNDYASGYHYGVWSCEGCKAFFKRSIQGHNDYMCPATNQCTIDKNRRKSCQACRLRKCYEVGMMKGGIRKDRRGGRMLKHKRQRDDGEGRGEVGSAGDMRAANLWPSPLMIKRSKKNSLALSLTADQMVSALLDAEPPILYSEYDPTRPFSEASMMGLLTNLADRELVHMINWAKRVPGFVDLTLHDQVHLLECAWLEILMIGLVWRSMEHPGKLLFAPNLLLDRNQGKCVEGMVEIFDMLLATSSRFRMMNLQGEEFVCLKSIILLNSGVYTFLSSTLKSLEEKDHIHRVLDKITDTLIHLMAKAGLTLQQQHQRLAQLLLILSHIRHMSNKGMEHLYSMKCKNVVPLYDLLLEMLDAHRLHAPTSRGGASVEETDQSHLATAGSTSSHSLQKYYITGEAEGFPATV
How it was run: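 MCF-7 cells were treated 24 h after seeding with test compounds at 1 nM to 100 nM final (0.2% DMSO) for 6 h at 37 °C. ERα in lysates (30 µg protein) was detected by Western blot with ECL; degradation was quantified from band grayscale intensity and DC50 derived.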

[2] = test system: MCF-7 cells; assay: Inhibition of MCF-7 cell proliferation (CellTiter-Glo cell viability); type: cell-based; details: Homo sapiens, MCF7, 144 h, 6 days treatment, 1 pM to 10 µM
Protocol: ERα-positive human breast cancer cells MCF-7 (ATCC, HTB-22) were cultured with EMEM medium (ATCC, catalog number 30-2003) containing 10% fetal bovine serum (Thermo Fisher, catalog number 10099141) and 10 µg/mL bovine insulin in 25 cm^2 or 75 cm^2 plastic tissue culture flasks in a 37 °C incubator with 5% CO2. The cells were passaged 2 to 3 times per week.
MCF-7 cells were seeded in 96-well plate at 3×10^3 cells/well with 90 µL culture medium per well, and cultured in a 37 °C incubator with 95% air and 5% CO2. After 24 hours, the test compounds were added: the compounds were serially diluted 10-fold in DMSO starting from 10 mM (dissolved in DMSO) to prepare gradient stock solutions. A complete culture medium containing 1% DMSO was prepared for further dilution, temporarily named as the "dilution buffer." Working solutions were prepared by diluting each stock solution with 99 times the volume of dilution buffer, that is, by adding 1 µL of the 10 mM stock solution to 99 µL of the dilution buffer and mixing thoroughly. Finally, 10 µL of the working solution was added to the cell-seeded culture plate. The final concentration of DMSO in the cell culture medium was 0.2%, and the final concentration of the test compounds ranged from 1 pM to 10 µM. The cells were then incubated at 37 °C for 3 days. The culture medium was removed and replaced with 90µL per well of fresh medium. According to the above compound dilution method, the test compounds were added again. On the 6th day, the CellTiter Glo luminescent cell viability assay kit (Promag, item number G7573) was added for cell viability measurement.
Cell viability was measured using the CellTiter-Glo assay kit, and the half-maximal growth inhibitory concentration (GI50) of the compounds was calculated using the Prism software.
The GI50 values (i.e., the concentration of the test compounds required to inhibit 50% of the cell proliferation) were calculated and shown in Table 2. A corresponds to a GI50 value below 10 nM, B corresponds to a GI50 value greater than 10 nM and less than 100 nM, and C corresponds to GI50 values greater than 100 nM. Table 2. The GI50 values of exemplary compounds in MCF-7 cells

[3] = Body weight of MCF-7/ERα Y537S xenograft mice; type: in vivo, female Balb/c nude mice; details: 1, 3 and 10 mpk, daily oral gavage, 17 days
Text: (§1) MCF-7/ERα Y537S tumors that had been passaged in mice for more than three but less than ten generations were transplanted as approximately 3×3×3 mm tumor blocks into the subcutaneous right flank of female Balb/c nude mice. When the tumor volume in the tumor-bearing mice reached around 200 mm^3, the mice were randomly divided into four groups according to tumor volume and body weight: vehicle group, 1 mpk group, 3 mpk group, and 10 mpk group, 7 mice in each group. The day of grouping was designated as D0, and daily oral gavage administration began on this day and last for a total of 17 days. The 17th day after administration was designated as Day 17.
(§2) The tumor volume was measured twice weekly using a caliper, and the body weight of the mice was measured using an analytical balance. The length and width of the tumor were measured, and the formula for tumor volume calculation is: Tumor Volume (TV) = 0.5 × length × width× width. The T/C value was calculated based on the tumor volume, where T is the mean relative tumor volume (RTV) of the treated groups, and C is the mean RTV of the vehicle group. The RTV is the ratio of the tumor volume after administration to the tumor volume before administration. The tumor growth inhibition rate (TGITV) (%) = (1 - T/C) × 100%.

[4] = test system: MCF-7/ERα Y537S xenografts; assay: Anti-tumor activity in MCF-7 xenografts expressing ERα Y537S mutant; type: in vivo, female Balb/c nude mice; details: 1, 3 and 10 mpk, daily oral gavage, 17 days
Text: as §1, §2

Compound	DC50 [1] [nM]	GI50 [2] [nM]	effect on body weight [3]	tumor growth inhibition [4]
CC1(C)CC(=C(c2ccc(N3CCC(CN4CCN(c5ccc(N6CCC(=O)NC6=O)cc5)CC4)CC3)nc2)c2ccc3[nH]nc(F)c3c2)CC(C)(C)O1 [Compound 77]	> 100	> 100		
CC1(C)CC(=C(c2ccc(N3CCC(CN4CCN(c5ccc(NC6CCC(=O)NC6=O)cc5)CC4)CC3)nc2)c2ccc3[nH]nc(F)c3c2)CC(C)(C)O1 (stereo not drawn) [Compound 88]	> 100	> 100		
CC1(C)CC(=C(c2ccc(N3CCC(CN4CCN(c5ccc(NC6CCC(=O)NC6=O)c(F)c5)CC4)CC3)nc2)c2ccc3[nH]nc(F)c3c2)CC(C)(C)O1 (stereo not drawn) [Compound 89]	> 100	> 100		
CC1(C)CC(=C(c2ccc(N3CCC(CN4CCN(c5ccc6c(c5)CN([C@H]5CCC(=O)NC5=O)C6=O)CC4)CC3)nc2)c2ccc3[nH]nc(F)c3c2)CC(C)(C)O1 [Compound 110]	< 10	< 10	no effect	dose-dependent tumor growth inhibition
CC1(C)CC(=C(c2ccc(N3CCC(CN4CCN(c5ccc6c(c5)CN([C@@H]5CCC(=O)NC5=O)C6=O)CC4)CC3)nc2)c2ccc3[nH]nc(F)c3c2)CC(C)(C)O1 [Compound 119]	< 10	< 10		
CC1(C)CC(=C(c2ccc(N3CCC4(CC3)CC(N3CCN(c5ccc6c(c5)CN([C@H]5CCC(=O)NC5=O)C6=O)CC3)C4)nc2)c2ccc3[nH]nc(F)c3c2)CC(C)(C)O1 [Compound 120]	< 10	< 10	no effect	dose-dependent tumor growth inhibition
CC1(C)CC(=C(c2ccc(N3CCC4(CC3)CC(N3CCN(c5ccc6c(c5)CN([C@@H]5CCC(=O)NC5=O)C6=O)CC3)C4)nc2)c2ccc3[nH]nc(F)c3c2)CC(C)(C)O1 [Compound 121]	< 10	< 10		
